Patent US20030138374A1, “Image diagnosis probe based on substituted azobenzene or analogue thereof for disease attributable to amyloid accumulation and composition for image diagnosis containing the same” (priority 2000, published 2003)
Structures can show the parent of a compound that is named as a salt.

Key:
amyloid β protein = molecular target: T1, amyloid β protein (Homo sapiens, UniProt P05067); assay: β structure recognition of amyloid β protein (thioflavin T fluorescence); format: binding; conditions: for β Structure recognition (%) / β structure recognition (%) at 1 µM: test compound 1 μM, thioflavin T 3 μM, average of duplicated experiments; for β structure recognition (%) at 1 µM: read-out: β Structure recognition (%); for β structure recognition (in words): comment on Table I
T1 construct: the amyloid β protein (purchased from Peptide Laboratory) was dissolved in a potassium phosphate buffer (pH7.4); purchased Peptide Laboratory
T1 sequence (P05067 672-711 limits assumed): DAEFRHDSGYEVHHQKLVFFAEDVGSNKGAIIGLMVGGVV
Experimental: (1) Method of Quantifying the Amyloid β Protein Having β Sheet Structure—method of Measuring of Recognition of β Structure in a Test Compound
Then, each 100 microliters of thioflavin T (which emits fluorescence depending on an extent of β structure of the amyloid β protein) dissolved in a glycine-NaOH buffer (pH 8.5) was added (final concentration 3 μM), and the fluorescence was immediately measured with a fluorescent microplate reader (manufactured by Molecular Device, Model fmax) at an excitation wavelength of 442 nm and a measurement wavelength of 485 nm. When the fluorescence of thioflavin alone was regarded as A, the fluorescence under the coexistence of the amyloid β protein and thioflavin T was regarded as B, and the fluorescence under the coexistence of the amyloid β protein, thioflavin T and a test compound was regarded as C, the recognition of β structure for the test compound was calculated by the following formula (unless otherwise indicated, the concentration of a test compound was 1 μM):
β structure recognition for test compound (%)={(B−C)/(B−A)}×100

[1] = Distribution coefficient between water/1-octanol; format: physicochemical; conditions: for Distribution coefficient: 1-octanol / phosphate buffer (pH 7.3) or ultra-pure water; for Distribution coefficient (in words): comment on Table I
Experimental: As an oily phase, 1-octanol was used and, as an aqueous phase, a phosphate buffer (pH 7.3) or ultra-pure water was used. A suitable amount of a test compound was dissolved in an oily phase or an aqueous phase, and both phases were placed in the same test tube, and shaken vigorously at room temperature for 30 minutes. After allowing to stand at room temperature over 1 hour, centrifugation at 2000 rpm for 10 minutes was carried out, followed by further standing at room temperature for 1 hour. The aqueous phase and the oily phase were sampled, respectively, and transferred to a 96-well microplate. By using a microplate reader (manufactured by Molecular Device, Model Spectramax 250), the absorbance was measured at a maximum absorbing wavelength for each test compound, and the concentration of the test compound was calculated from a calibration curve previously obtained. A distribution coefficient was calculated by the following formula. Distribution coefficient for test compound =(concentration of test compound in oily phase)/(concentration of test compound in aqueous phase) As the distribution coefficient becomes larger, it can be said that the blood-brain barrier permeability for the test compound is higher.

With `CCN(CC)c1ccc(/N=N/c2ccc(Br)cn2)c(O)c1` [BF-020] the “β Structure recognition (%)” value (amyloid β protein) was 84.4%.

In the case of `CCN(CC)c1ccc(/N=C/c2ccc(N(CC)CC)cc2O)cc1` [BF-021], the “β Structure recognition (%)” value (amyloid β protein) is reported as 70.8%, the Distribution coefficient [1] is reported as 30 and the “Distribution coefficient (in words)” value [1] is reported as “high distribution coefficients”.

Work on `CN(C)c1ccc(/N=C2/C=CC(=O)c3ccccc32)cc1` [BF-022] yielded a β structure recognition (%) at 1 µM (amyloid β protein) of 27.8%.

Work on `CN(C)c1ccc(/C=N/c2ccc(O)cc2)cc1` [BF-033] yielded a β structure recognition (%) at 1 µM (amyloid β protein) of 7.6%.

In the case of `CCOc1ccc(/N=C/c2ccc(N(C)C)cc2)cc1.Cl` [BF-034], the “β Structure recognition (%)” value (amyloid β protein) is reported as 19.7%.

With `CN(C)c1ccc(/C=N/c2ccc(F)cc2)cc1.Cl` [BF-035] the “β Structure recognition (%)” value (amyloid β protein) was 5.6%.

In the case of `CCN(CC)c1ccc(/N=N/c2ccc(N(C)C)cc2)c(NC(N)=O)c1` [BF-055], the β structure recognition (%) at 1 µM (amyloid β protein) is reported as 85%.

For `CCN(CC)c1ccc(/C=C/c2cccc(/C=C/c3ccc(N(CC)CC)cc3)[n+]2C)cc1` [BF-064], the “β structure recognition (in words)” value (amyloid β protein) was “highly recognize β structure”, the β structure recognition (%) at 1 µM (amyloid β protein) was 78.5% and the Distribution coefficient [1] was 87. For the same molecule, the “Distribution coefficient (in words)” value [1] was “high distribution coefficients”.

With `O.O.O.O.O.O=C([O-])c1cc(N=Nc2ccc(-c3ccc(N=Nc4ccc(O)c(C(=O)[O-])c4)cc3)cc2)ccc1O.[Na+].[Na+]` [Chrysamine G 2Na.5H2O, reference compound] the “β Structure recognition (%)” value (amyloid β protein) was 84.5% and the Distribution coefficient [1] was 2.7.

With `CN(C)c1ccc(SSc2ccc(N(C)C)cc2)cc1` [Compound N-200] the β structure recognition (%) at 1 µM (amyloid β protein) was 21.6%.

Molecule `O=C(O)c1cc(/C=C/c2ccc(/C=C/c3ccc(O)c(C(=O)O)c3)cc2)ccc1O` [Compound X34, 1,4-bis[2-(3-carboxy-4-hydroxyphenyl)eten-yl]-benzene, reference compound] has a β structure recognition (%) at 1 µM (amyloid β protein) of 73.9% and a Distribution coefficient [1] of 3.4.

In the case of `O=C([O-])c1cc(/C=C/c2ccc(/C=C/c3ccc(O)c(C(=O)[O-])c3)cc2)ccc1O.[Na+].[Na+]` [Compound X34.2Na, reference compound], the “β Structure recognition (%)” value (amyloid β protein) is reported as 74.0% and the Distribution coefficient [1] is reported as 2.7.

For `CN(C)c1ccc(/N=N/c2ccc(S(=O)(=O)O)cc2)cc1` [SA-125, Methyl Orange], the β structure recognition (%) at 1 µM (amyloid β protein) was 62.2% and the Distribution coefficient [1] was 1.

`CCN(CC)c1ccc(/N=N/c2ccccc2)cc1` [SA-134, 4-(diethylamino) azobenzene] gave a β structure recognition (%) at 1 µM (amyloid β protein) of 65.4%.

`Cc1cc(N(C)C)ccc1/N=N/c1ccccc1` [SA-135, 4-dimethylamino-2-methyl-azobenzene] showed a β structure recognition (%) at 1 µM (amyloid β protein) of 42.8%.

With `Nc1ccc(/N=N/c2ccccc2)cc1` [SA-138, 4-phenyl azoaniline HCl salt] the β structure recognition (%) at 1 µM (amyloid β protein) was 35.9%.

In the case of `Nc1ccc(/N=N/c2ccccc2)cc1` [SA-148, 4-phenyl azoaniline], the “β Structure recognition (%)” value (amyloid β protein) is reported as 28.0%.

With `CCN(CC)c1ccc(/N=N/c2ccc(S(=O)(=O)O)cc2)cc1` [SA-163, Ethyl Orange Na salt] the β structure recognition (%) at 1 µM (amyloid β protein) was 30.7%.

For `CC[n+]1c(/C=C/c2ccc(N(C)C)cc2)ccc2ccccc21` [SA-169, Quinaldine Red], the “β structure recognition (in words)” value (amyloid β protein) was “highly recognize β structure”, the β structure recognition (%) at 1 µM (amyloid β protein) was 91.9% and the Distribution coefficient [1] was 18.

`Nc1ccc(/N=N/c2ccc([N+](=O)[O-])cc2)cc1` [SA-180, Disprese Orange 3] showed a β structure recognition (%) at 1 µM (amyloid β protein) of 58%.

Work on `CN(C)c1ccc(/N=N/c2ccc(S(=O)(=O)Cl)cc2)cc1` [SA-188, 4-(dimethylamino) azobenzene-4′-sulfonylchloride] yielded a β structure recognition (%) at 1 µM (amyloid β protein) of 62.7%.

For `Nc1ccc(/N=N/c2cccc3ccccc23)c(N)c1` [SA-201, Fat Brown RR], the β structure recognition (%) at 1 µM (amyloid β protein) was 73%.

In the case of `CC[n+]1ccccc1/C=C/c1ccc(N(C)C)cc1` [SA-212, 2-(4-(dimethylamino)stylyl)-1-ethyl pyridinium iodide], the β structure recognition (%) at 1 µM (amyloid β protein) is reported as 46%.

With `CN(C)c1ccc(C=Cc2cccc[n+]2C)cc1.[I-]` [SA-213, 2-(4-(dimethylamino)stylyl)-1-methyl pyridinium iodide] the “β Structure recognition (%)” value (amyloid β protein) was 50.7%.

With `CN(C)c1ccc(N=Nc2ccccn2)cc1` [SA-215, 4-(2-pyridylazo)-N,N-dimethylaniline] the “β structure recognition (in words)” value (amyloid β protein) was “relatively high recognition of β structure”, the β structure recognition (%) at 1 µM (amyloid β protein) was 69.1% and the Distribution coefficient [1] was greater than 100. For the same molecule, the “Distribution coefficient (in words)” value [1] was “highest distribution coefficient”.

In the case of `CN(C)c1ccc(/C=C/c2ccc3ccccc3[n+]2C)cc1` [SA-245, 2-(4-(dimethylamino)stylyl)-1-methyl quinolinium iodide], the “β structure recognition (in words)” value (amyloid β protein) is reported as “highly recognize β structure”, the β structure recognition (%) at 1 µM (amyloid β protein) is reported as 86.9% and the Distribution coefficient [1] is reported as 10.

For `CN(C)c1ccc(C=Cc2cccc[n+]2C)cc1.[I-]` [SA-247, 2-(4-(dimethylamino)stylyl)-1-metyl pyridinium iodide], the “β Structure recognition (%)” value (amyloid β protein) was 19.5%.

With `Nc1ccc(SSc2ccc(N)cc2)cc1` [SA-260, 4-aminophenyldisulfide] the “β structure recognition (in words)” value (amyloid β protein) was “highly recognize β structure” and the β structure recognition (%) at 1 µM (amyloid β protein) was 83.1%.

`CN(C)c1ccc(/C=C/c2ccccn2)cc1` [SA-271] showed a β structure recognition (%) at 1 µM (amyloid β protein) of 53%.

Work on `Nc1ccc(/C=C/c2ccc(N)cc2)cc1` [SA-324, 4,4′-diaminostylbene (2HCl salt)] yielded a β structure recognition (%) at 1 µM (amyloid β protein) of 36%.

`Nc1c(SSc2ccc3ccccc3c2N)ccc2ccccc12` [SA-366, 2,2′-dithiobis(1-naphthylamine)] showed a β structure recognition (%) at 1 µM (amyloid β protein) of 43.3%.

For `CN(C)c1ccc(N=Nc2ccc(N)cc2Cl)cc1` [SA-376, Disperse Black 7], the β structure recognition (%) at 1 µM (amyloid β protein) was 35.7%.

In the case of `CCOc1ccc(/N=C/c2ccc(N(C)C)cc2)cc1` [SA-399, N-(4-(dimethylamino)benzylidene)-p-phenetidine], the β structure recognition (%) at 1 µM (amyloid β protein) is reported as 23.1%.

For `CN(C)c1ccc(/C=N/c2ccc(F)cc2)cc1` [SA-407, N-(4-(dimethylamino)benzylidene)-4-fluoroaniline], the β structure recognition (%) at 1 µM (amyloid β protein) was 6.8%.

`CCc1ccc(/N=C/c2ccc(N(C)C)cc2)cc1` [SA-408, N-(4-(dimethylamino)benzylidene)-4-ethylaniline] gave a β structure recognition (%) at 1 µM (amyloid β protein) of 7.9%.

For `COc1cc(N=Nc2ccc(N)cc2)c(C)cc1N` [SA-419, 4,4′diamino-5-methoxy-2-methyl azobenze], the β structure recognition (%) at 1 µM (amyloid β protein) was 38.4%.

In the case of `CCN(CC)c1ccc(N=Nc2ccc(N(C)C)cc2)c(NC(N)=O)c1` [SA-420, 4-(diethylamino)-4′-(dimethylamino)-2-(ureido)azobenzene], the “β structure recognition (in words)” value (amyloid β protein) is reported as “highly recognize β structure” and the β structure recognition (%) at 1 µM (amyloid β protein) is reported as 71.6%.

`CCN(CC)c1ccc(/C=C/c2cc[n+](C)cc2)cc1` [SA-445] gave a β structure recognition (%) at 1 µM (amyloid β protein) of 71.2%.

With `CN(C)c1ccc(/N=N/c2ccc(NC(=O)CI)cc2)cc1` [SA-446, N-(4-dimethylamino) azobenzene-4′-iodoacetamide] the β structure recognition (%) at 1 µM (amyloid β protein) was 52.4%.

`CN(C)c1ccc(/N=N/c2ccc(N)cc2)cc1` [SA-512, N,N-dimethyl-4,4′-azodianiline] showed a β structure recognition (%) at 1 µM (amyloid β protein) of 68.2%.

For `CN(C)c1ccc(/N=N/c2ccc(C(=O)O)cc2)cc1` [SA-606], the β structure recognition (%) at 1 µM (amyloid β protein) was 53.5%.

For `CN(C)c1ccc(/C=N/c2cc3c(ccc4ccccc43)cn2)cc1` [SA-672, benzo(F) isoquinoline-2-yl-(4-dimethylaminobenzylidene)-amine], the β structure recognition (%) at 1 µM (amyloid β protein) was 39.3%.

In the case of `CCN(CC)c1ccc(/C=N/c2ccccc2)cc1` [SA-757, N-(4-(diethylamino)benzylidene) aniline], the β structure recognition (%) at 1 µM (amyloid β protein) is reported as 33.9%.

With `CN(C)c1ccc(/N=C/c2ccccc2)cc1` [SA-758, N-benzylidene-N′,N′-dimethylbenzene-1,4-diamine] the β structure recognition (%) at 1 µM (amyloid β protein) was 46.5%.

Work on `CN(C)c1ccc(/C=C/c2ccc3ccccc3n2)cc1` [SA-770, 2-(4-(dimethylamino)stylyl) quinoline] yielded a β structure recognition (%) at 1 µM (amyloid β protein) of 25.4%.
